Test results as given in patent publication US20020026945A1, “Enhancement of photodynamic therapy by anti-angiogenic treatment” (priority 2000, published 2002).
Residues, ends and D or L forms follow the SMILES beside them.

B1: EMAP-II: recombinant single chain polypeptide which inhibits tumor growth and has anti-angiogenic activity (protein, UniProt Q12904 147-312, looked up)
Endothelial …: SKPIDVSRLDLRIGCIITARKHPDADSLYVEEVDVGEIAPRTVVSGLVNHVPLEQMQNRMVILLCNLKPAKMRGVLSQAMVMCASSPEKIEILAPPNGSVPGDRITFDAFPGEPDKELNPKKKIWEQIQPDLHTNDECVATYKGVPFEVKGKGVCRAQTMSNSGIK
modifications: Endothelial monocyte-activating polypeptide 2

Legend:
HIF-1α = test: Western immunoblot of HIF-1α in treated tumors; format: in vivo, C3H mice
Procedure: (§1) In FIG. 1A, tumors were collected immediately following treatment and evaluated for HIF-1α expression by Western immunoblot analysis. HIF-1α was not detectable in control tumors measuring 6-7 mm in diameter. […] In FIG. 1B, separate tumors were collected 24 hr after photodynamic therapy or clamping (45 min) and assayed for VEGF expression by Western immunoblot analysis. Expression of actin was used to monitor protein loading.
(§2) In-vivo photodynamic therapy tumor treatments were performed as previously reported on tumors measuring 6-7 mm in diameter (17). Briefly, photodynamic therapy procedures included an i.v. injection of PH (5 mg/kg) followed 24 h later with non-thermal laser tumor irradiation using an argon pumped dye laser emitting red light at 630 nm. A light dose rate of 75 mW/cm^2 and a total light dose of 200 J/cm^2 were used for all in-vivo PDT treatments. Following treatment, tumors were measured 3 times per week. Cures were defined as being disease free for at least 40 days following photodynamic therapy (17). Anti-angiogenic treatment was performed using either EMAP-II or IM862. […]
(§3) Tumors were collected at various times after treatment, homogenized with a polytron in 1X reporter lysis buffer (Promega, Wis.) and evaluated for protein expression as described previously (18). […]

BA mammary carcinomas = test: In-vivo PDT tumor treatment, tumor cures; parameters: species or system C3H/HeJ mice; conditions: for tumor cures or tumor regression / tumor growth parameters: anti-angiogenic treatment alone, daily IP for 10 days, no PDT; for tumor cures: single PDT (PH 5 mg/kg, 200 J/cm^2) plus daily IP injections for 10 days (EMAP-II 50 μg/kg, IM862 25 mg/kg), disease free at least 40 days
Procedure: BA mouse mammary carcinoma cells (originally obtained from the NIH tumor bank) were used in all in-vitro and in-vivo experiments (17). Cells were grown as a monolayer in RPMI 1640 media supplemented with 10% fetal calf serum (FCS) and antibiotics. The plating efficiency for the BA cells ranged from 40-60%. Subcutaneous BA mammary carcinomas were generated by trocar injection of 1-mm^3 pieces of tumor to the hind right flank of 8-12 week old female C3H/HeJ mice (17).
In-vivo photodynamic therapy tumor treatments were performed as previously reported on tumors measuring 6-7 mm in diameter (17). Briefly, photodynamic therapy procedures included an i.v. injection of PH (5 mg/kg) followed 24 h later with non-thermal laser tumor irradiation using an argon pumped dye laser emitting red light at 630 nm. A light dose rate of 75 mW/cm^2 and a total light dose of 200 J/cm^2 were used for all in-vivo PDT treatments. Following treatment, tumors were measured 3 times per week. Cures were defined as being disease free for at least 40 days following photodynamic therapy (17). Anti-angiogenic treatment was performed using either EMAP-II or IM862. Each compound was administered as daily IP injections for 10 consecutive days starting 1 h prior to photodynamic therapy light treatment. Individual IM862 doses were 25 mg/kg and individual EMAP-II doses were 50 μg/kg. Tumor tissue hypoxia was induced in selected experiments by clamping lesions for 45 minutes. Statistical analysis was performed using the X^2 test for evaluation of tumor cure rates.
A photodynamic therapy procedure, which produced a moderate cure rate alone, was used to measure positive or negative changes in tumor response when a single photodynamic therapy treatment was combined with daily injections of EMAP-II or IM862 for 10 days (17).

VEGF [1] = test: Western immunoblot of VEGF in treated tumors; parameters: species or system C3H mice; conditions: tumor lysates collected 24 hours after in-vivo PDT
Procedure: as §1, §2, §3

VEGF [2] = test: VEGF ELISA of culture media of BA mammary carcinoma cells; format: cell-based, mouse; conditions: in-vitro PDT, PH 25 μg/ml, 210 J/m^2, measured 24 hr after treatment
tumor cells = conditions: cited from earlier work
angiogenesis = conditions: preclinical studies; cited from earlier work
[3] = in vivo; cited from earlier work
xenograft models = conditions: in vivo; cited from earlier work
VEGF [4] = conditions: preclinical studies; cited from earlier work
VEGF [5] = test: VEGF ELISA of tumor extracts after PDT; format: in vivo, mouse; conditions: PDT plus 2 doses of agent versus PDT alone; tumors collected 24 hr after PDT
Procedure: Tumor bearing mice received either no treatment (Control), photodynamic therapy alone, or photodynamic therapy plus 2 injections of either EMAP-II or IM862 (1 hr prior to photodynamic therapy and 23 hr after photodynamic therapy). Tumor samples were collected 24 hr after PDT and assayed for VEGF expression using a commercial ELISA assay kit. Each group represents the mean ± SE of 6 individual tumor samples.
as §2
A Quantikine M mouse VEGF ELISA kit (R&D Systems, Minneapolis, Minn.) was used to quantify VEGF levels in cell culture media as well as in tumor extracts from control and treated mice. […]
The effects of the anti-angiogenic derivatives on photodynamic therapy induced VEGF levels were analyzed in the treated tumors. […]

[6] = system: AIDS associated Kaposi's sarcoma; conditions: intranasal administration; reference 16; cited from earlier work
tumor growth = conditions: reference 15; cited from earlier work
[7] = system: growing capillary endothelial cells; conditions: time and dose dependent; reference 15; cited from earlier work
[8] = in vivo; cited from earlier work; remark: listed apart in the source
vessel ingrowth = conditions: experimental angiogenesis models and primary tumors; cited from earlier work

Molecule | HIF-1α expression (Western) (HIF-1α; PDT (PH 5 mg/kg; 200 J/cm^2), tumors collected immediately following treatment) | time after photodynamic therapy at which HIF-1α expression is observed (HIF-1α; PDT of BA tumors in C3H mice) | cure rate (BA mammary carcinomas; photodynamic therapy alone (PH 5 mg/kg i.v., 630 nm, 200 J/cm^2), cure = disease free for at least 40 days) | VEGF expression within treated lesions (Western) (VEGF [1]) | VEGF levels in culture media (VEGF [2]) | direct cytotoxic effect on tumor cells (tumor cells) | angiogenesis in chorioallantoic membrane assays (angiogenesis) | tumor cures or tumor regression (BA mammary carcinomas) | tumor growth parameters (BA mammary carcinomas) | tumor cures (BA mammary carcinomas) | safety and tolerability [3] | tumor growth in xenograft models (xenograft models) | VEGF production in monocytic lineage cells (VEGF [4]) | VEGF levels in PDT treated tumors (ELISA) (VEGF [5]) | antitumor activity in patients [6] | tumor growth (tumor growth) | apoptosis in growing capillary endothelial cells [7] | toxicity in normal organs [8] | vessel ingrowth (vessel ingrowth)
Photofrin porfimer sodium | induced HIF-1α expression | ≤ 5 min | 39% | induced significant increases in VEGF expression | modestly increase in VEGF levels | – | – | – | – | – | – | – | – | – | – | – | – | – | –
N[C@@H](CCC(=O)O)C(=O)N[C@@H](Cc1c[nH]c2ccccc12)C(=O)O [IM862, L-glutamyl-L-tryptophan] (H-Glu-Trp-OH) | – | – | – | – | – | no direct cytotoxic effect | inhibits angiogenesis | did not produce any tumor cures or tumor regression | only slightly modified tumor growth parameters | 78% | safe and well tolerated | inhibits tumor growth | inhibits VEGF production | decrease in VEGF levels | exhibits antitumor activity | – | – | – | –
B1 | – | – | – | – | – | – | – | did not produce any tumor cures or tumor regression | only slightly modified tumor growth parameters | 89% | – | – | – | statistically significant decrease | – | inhibits tumor growth | induces apoptosis | does not induce toxicity | prevents vessel ingrowth
